Laboratory results reported in the supplement of paper PMC11281043.

Experiments:
Danio rerio embryo/larva [1] = test: BMC edema; higher = less potent; details: max tested concentration (log10 uM): 2; exposure: 6-8 hpf to 5 dpf, scored at 6 dpf
Procedure: (§1)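 Zebrafish embryos (with chorion) were exposed from 6-8 hpf to each PFAS (8-point half-log series, top concentration up to 100 uM, 0.4% DMSO, sealed plates, 26 C; n = 6 embryos per concentration), rinsed at 5 dpf and scored at 6 dpf by two blinded observers for mortality, hatching and malformations. Endpoint scores are the % of living larvae affected (dead larvae excluded; […]). Curves were fitted with tcpl (cutoff 16%), and the BMC is the concentration at a benchmark response of 21.6%.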

Danio rerio embryo/larva [2] = test: BMC swim bladder non-inflation; higher = less potent; details: max tested concentration (log10 uM): 2; exposure: 6-8 hpf to 5 dpf, scored at 6 dpf
Procedure: as §1

Danio rerio embryo/larva [3] = test: BMC any abnormality; max tested concentration (log10 uM): 2; higher = less potent; details: exposure: 6-8 hpf to 5 dpf, scored at 6 dpf
Procedure: as §1

Danio rerio embryo/larva [4] = test: max % larvae unhatched across tested concentrations; max tested concentration (log10 uM): 2; higher = more toxic; details: exposure: 6-8 hpf to 5 dpf, scored at 6 dpf
Danio rerio embryo/larva [5] = test: max % larvae with any abnormality across tested concentrations; max tested concentration (log10 uM): 2; higher = more toxic; extreme values may be limits of the assay; details: exposure: 6-8 hpf to 5 dpf, scored at 6 dpf
Danio rerio embryo/larva [6] = test: max % larvae dead across tested concentrations; max tested concentration (log10 uM): 2; higher = more toxic; extreme values may be limits of the assay; details: exposure: 6-8 hpf to 5 dpf, scored at 6 dpf

Compound	BMC edema (Danio rerio embryo/larva [1])	BMC swim bladder non-inflation (Danio rerio embryo/larva [2])	BMC any abnormality (Danio rerio embryo/larva [3])	max % larvae unhatched across tested concentrations (Danio rerio embryo/larva [4])	max % larvae (Danio rerio embryo/larva [5])	max % larvae dead across tested concentrations (Danio rerio embryo/larva [6])
FC(F)(F)C(F)(F)C(F)(F)C(F)(F)C(F)(F)CCI [1-Iodo-1H,1H,2H,2H-perfluoroheptane]	31.5 µM	31.5 µM	29.3 µM	0%	72.9%	–
FC(F)(F)C(F)(F)C(F)(F)C(F)(F)C(F)(F)C(F)(F)C(F)(F)I [1-Iodopentadecafluoroheptane]	–	56.7 µM	10.9 µM	0%	83.3%	16.7%
C=C(C)C(=O)OCC(F)(F)C(F)(F)C(F)(F)C(F)F [1H,1H,5H-Perfluoropentyl methacrylate]	–	–	27.9 µM	0%	66.7%	66.7%
Cc1ccc(S(=O)(=O)OCC(F)(F)C(F)(F)C(F)(F)C(F)(F)C(F)(F)C(F)F)cc1 [1H,1H,7H-Perfluoroheptyl 4-methylbenzenesulfonate]	–	8.97 µM	20.3 µM	0%	75%	0%
NCC(F)(F)C(F)(F)C(F)(F)C(F)(F)C(F)(F)C(F)(F)F [1H,1H-Perfluoroheptylamine]	79.2 µM	–	79.2 µM	0%	33.3%	0%
C=CC(=O)OCCC(F)(F)C(F)(F)C(F)(F)C(F)(F)F [2-(Perfluorobutyl)ethyl acrylate]	–	75.7 µM	26.3 µM	0%	100%	–
O=P(O)(O)CCC(F)(F)C(F)(F)C(F)(F)C(F)(F)C(F)(F)C(F)(F)F [2-(Perfluorohexyl)ethylphosphonic acid]	22.5 µM	–	21.9 µM	0%	95.8%	–
O=C(O)CCC(F)(F)C(F)(F)C(F)(F)F [3:3 Fluorotelomer carboxylic acid]	–	–	87.8 µM	0%	25%	0%
OCC(F)(F)C(F)(F)C(F)(F)C(F)(F)C(F)(F)C(F)(F)F [6:1 Fluorotelomer alcohol]	94.1 µM	–	73.3 µM	0%	75%	–
OCCCC(F)(F)C(F)(F)C(F)(F)C(F)(F)C(F)(F)C(F)(F)C(F)(F)F [7:3 Fluorotelomer alcohol]	–	99 µM	38.3 µM	0%	45.8%	–
CCN(CCO)S(=O)(=O)C(F)(F)C(F)(F)C(F)(F)C(F)(F)C(F)(F)C(F)(F)C(F)(F)C(F)(F)F [N-Ethyl-N-(2-hydroxyethyl)perfluorooctane sulfonamide]	–	–	–	0%	12.5%	0%
CN(C(=O)C(F)(F)C(F)(F)C(F)(F)F)[Si](C)(C)C [N-Methyl-N-trimethylsilylheptafluorobutyramide]	–	–	–	0%	0%	0%
CNS(=O)(=O)C(F)(F)C(F)(F)C(F)(F)C(F)(F)C(F)(F)C(F)(F)C(F)(F)C(F)(F)F [N-Methylperfluorooctanesulfonamide]	20.1 µM	0.439 µM	0.702 µM	0%	95.8%	–
NC(=O)C(F)(F)C(F)(F)C(F)(F)C(F)(F)F [Nonafluoropentanamide]	–	–	–	0%	0%	0%
NC(=O)C(F)(F)C(F)(F)C(F)(F)C(F)(F)C(N)=O [Octafluoroadipamide]	–	–	–	0%	0%	0%
O=C(Cl)C(F)(F)C(F)(F)C(F)(F)C(F)(F)C(F)(F)C(F)(F)C(F)(F)F [Pentadecafluorooctanoyl chloride]	–	–	–	0%	16.7%	0%
NC(=O)C(F)(F)C(F)(F)F [Pentafluoropropionamide]	–	–	–	0%	0%	0%
O=C(O)C(F)(F)C(F)(F)C(F)(F)OC(F)(F)F [Perfluoro(4-methoxybutanoic acid)]	–	–	–	0%	0%	0%
FC(F)(F)C(F)(F)C(F)(F)C(F)(F)C(F)(F)C(F)(F)I [Perfluoro-1-iodohexane]	–	–	–	0%	0%	0%
O=S(=O)(O)C(F)(F)C(F)(F)OC(F)(F)C(F)(F)F [Perfluoro-2-ethoxyethanesulfonic acid]	–	–	–	0%	16.7%	0%
O=C(O)C(F)(F)OC(F)(F)C(F)(F)OC(F)(F)C(F)(F)OC(F)(F)F [Perfluoro-3,6,9-trioxadecanoic acid]	–	–	–	0%	100%	16.7%

Compound	BMC edema (Danio rerio embryo/larva [1])	BMC swim bladder non-inflation (Danio rerio embryo/larva [2])	BMC any abnormality (Danio rerio embryo/larva [3])	max % larvae unhatched across tested concentrations (Danio rerio embryo/larva [4])	max % larvae (Danio rerio embryo/larva [5])	max % larvae dead across tested concentrations (Danio rerio embryo/larva [6])
O=C(O)C(F)(F)OC(F)(F)C(F)(F)OC(F)(F)F [Perfluoro-3,6-dioxaheptanoic acid]	–	–	–	0%	4.17%	0%
O=C(O)C(F)(F)OC(F)(F)C(F)(F)OC(F)(F)C(=O)O [Perfluoro-3,6-dioxaoctane-1,8-dioic acid]	–	–	–	0%	0%	0%
O=C(O)C(F)(F)C(F)(F)OC(F)(F)F [Perfluoro-3-methoxypropanoic acid]	–	–	–	0%	16.7%	0%
O=C(O)C(F)(F)C(F)(F)C(F)(F)OC(F)(C(F)(F)F)C(F)(F)F [Perfluoro-4-isopropoxybutanoic acid]	–	–	–	0%	0%	0%
O=C(O)C(F)(F)C(F)(F)C(=O)O [Perfluorobutanedioic acid]	–	–	–	0%	16.7%	16.7%
O=S(=O)(O)C(F)(F)C(F)(F)C(F)(F)C(F)(F)F [Perfluorobutanesulfonic acid]	–	–	–	0%	0%	0%
O=C(O)C(F)(F)C(F)(F)C(F)(F)F [Perfluorobutanoic acid]	–	–	–	0%	20%	0%
O=C(Cl)C(F)(F)C(F)(F)C(F)(F)C(F)(F)C(F)(F)C(F)(F)F [Perfluoroheptanoyl chloride]	–	–	–	0%	16.7%	0%
O=C(O)C(F)(F)C(F)(F)C(F)(F)C(F)(F)C(=O)O [Perfluorohexanedioic acid]	–	–	–	0%	0%	0%
O=C(O)C(F)(F)C(F)(F)C(F)(F)C(F)(F)C(F)(F)F [Perfluorohexanoic acid]	–	–	–	0%	0%	0%
O=C(Cl)C(F)(F)C(F)(F)C(F)(F)C(F)(F)C(F)(F)C(F)(F)C(F)(F)C(F)(F)F [Perfluorononanoyl chloride]	–	–	25 µM	0%	100%	100%
NC(=O)C(F)(F)C(F)(F)C(F)(F)C(F)(F)C(F)(F)C(F)(F)C(F)(F)F [Perfluorooctanamide]	–	–	–	0%	0%	0%
NC(=O)C(F)(F)C(F)(F)C(F)(F)C(F)F [Perfluoropentanamide]	–	–	–	0%	0%	0%
O=C(O)C(F)(F)C(F)(F)C(F)(F)C(=O)O [Perfluoropentanedioic acid]	–	–	–	0%	0%	0%
O=C(O)C(F)(F)C(F)(F)C(F)(F)C(F)(F)F [Perfluoropentanoic acid]	–	–	–	0%	25%	0%
O=C(O)C(F)(F)C(F)(F)F [Perfluoropropanoic acid]	–	–	–	0%	0%	0%
O=S(=O)(O)C(F)(F)C(F)(F)C(F)(F)C(F)(F)F [Potassium perfluorobutanesulfonate]	–	–	–	0%	8.33%	0%
O=S(=O)(O)C(F)(F)C(F)(F)C(F)(F)C(F)(F)C(F)(F)C(F)(F)F [Potassium perfluorohexanesulfonate]	–	–	31.3 µM	0%	90.9%	–
O=C(O)C(F)(F)C(F)(F)C(F)(F)C(F)(F)C(F)(F)C(F)(F)C(F)(F)F [Potassium perfluorooctanoate]	–	–	–	0%	16.7%	16.7%
O=C(O)C(F)(F)C(F)(F)C(F)(F)C(F)(F)C(F)(F)C(F)(F)C(F)(F)F [Sodium perfluorooctanoate]	–	–	–	0%	0%	0%
FC(F)(F)COC(OCC(F)(F)F)OCC(F)(F)F [tris(Trifluoroethoxy)methane]	–	–	–	0%	0%	0%
